The test relates to RAW264.7 macrophages. As to the kind of experiment: Effects of factors on phagosomal rupture at 22° C. As to conditions: 22° C. cold shock; chloroquine 100 μM 30 min, tetrandrine 5 μM 30 min, colchicine 5 μM 3 h, LLOMe 1 mM 30 min, hypotonic shock 0.6×PBS. The format is cell-based.
Procedure: Incubation of macrophages with microparticles. […] A prewarmed suspension of macrophages in the complete medium (3.5×10^5 cells/mL, 1 mL, 37° C.) supplemented with LPS (1 μg/mL) was added into a chamber and incubated (5% CO2, 37° C.) for the specified period.
Control. […] After 3 h, the complete medium was replaced with PBS (1 mL, 22° C.) and maintained for 2 min before being imaged.
Hypotonic shock. 0.6×PBS was prepared by mixing PBS with H2O (volume ratio=6:4). […] After 3 h, the complete medium was replaced with the 0.6×PBS (1 mL, 22° C.) and maintained for 2 min before being imaged.
Chloroquine. […] After 2.5 h, chloroquine (10 mM in DMEM) was added to the culture to reach 100 μM and further incubated (5% CO2, 37° C.) for 30 min. The complete medium was replaced with PBS (1 mL, 22° C.) and maintained for 2 min before being imaged.
Tetrandrine. […] After 2.5 h, tetrandrine (5 mM in DMSO) was added to the culture to reach 5 μM and further incubated (5% CO2, 37° C.) for 30 min. The complete medium was replaced with PBS (1 mL, 22° C.) and maintained for 2 min before being imaged.
Colchicine. […] After 3 h, colchicine (2.5 mM in DMEM) was added to the culture at 5 μM and further incubated (5% CO2, 37° C.) for 3 h. The complete medium was replaced with PBS (1 mL, 22° C.) and maintained for 2 min before being imaged.
LLOMe. […] After 2.5 h, LLOMe (10 mM in DMEM) was added to the culture at 1 mM and further incubated (5% CO2, 37° C.) for 30 min. The complete medium was replaced with PBS (1 mL, 22° C.) and maintained for 2 min before being imaged.
For each factor, an experiment was conducted to study its effect. […] Exposure of the macrophages to each factor was conducted either during or before the cold shock.
Regarding `CCN(CC)CCCC(C)Nc1ccnc2cc(Cl)ccc12` (stereo not drawn) [Chloroquine], the “effect on percentage of phagosomal rupture at 22° C. compared to the control” value is given as “did not induce a significant effect”.
Then `COc1cc2c(c(OC)c1OC)-c1ccc(OC)c(=O)cc1[C@@H](NC(C)=O)CC2` [Colchicine], with “insignificant”.
Then `COC(=O)[C@H](CC(C)C)NC(=O)[C@@H](N)CC(C)C.Cl` [LLOMe, L-Leucyl-L-leucine methyl ester hydrochloride], with “significantly increased”.

The values above are taken from US20230374177A1, “CYTOSOLIC MICROPARTICLES, PHAGOCYTIC CELLS COMPRISING THE SAME, AND METHODS FOR TREATING DISEASE COMPRISING THE SAME” (Florida State University Research Foundation, Inc., priority 2022, published 2023).
